Patent US7105505B2, “Benzimidazole derivatives useful as histamine H3 antagonists” (Schering Corporation, priority 2002, dated 2006)

Biological target: T1, H3 receptors (Cavia porcellus, UniProt Q9JI35)
T1 construct: The source of the H3 receptors in this experiment was guinea pig brain; from tissue; host or cells: guinea pig brain membranes
Experiment: H3 Receptor Binding Assay (guinea pig brain membranes)
Details: Receptor Source Guinea pig, [3H]R-α-methyl histamine or [3H]Nα-methyl histamine
Procedure: General Procedure for H3Receptor Binding Assay
The source of the H3 receptors in this experiment was guinea pig brain. The animals weighed 400–600 g. The brain tissue was homogenized with a solution of 50 mM Tris, pH 7.5. The final concentration of tissue in the homogenization buffer was 10% w/v. The homogenates were centrifuged at 1,000×g for 10 min. in order to remove clumps of tissue and debris. The resulting supernatants were then centrifuged at 50,000×g for 20 min. in order to sediment the membranes, which were next washed three times in homogenization buffer (50,000×g for 20 min. each). The membranes were frozen and stored at −70° C. until needed.
All compounds to be tested were dissolved in DMSO and then diluted into the binding buffer (50 mM Tris, pH 7.5) such that the final concentration was 2 μg/ml with 0.1% DMSO. Membranes were then added (400 μg of protein) to the reaction tubes. The reaction was started by the addition of 3 nM [^3H]R-α-methyl histamine (8.8 Ci/mmol) or 3 nM [^3H]N^α-methyl histamine (80 Ci/mmol) and continued under incubation at 30° C. for 30 min. Bound ligand was separated from unbound ligand by filtration, and the amount of radioactive ligand bound to the membranes was quantitated by liquid scintillation spectrometry. All incubations were performed in duplicate and the standard error was always less than 10%. Compounds that inhibited more than 70% of the specific binding of radioactive ligand to the receptor were serially diluted to determine a Ki (nM).

T1 sequence (Q9JI35 whole entry): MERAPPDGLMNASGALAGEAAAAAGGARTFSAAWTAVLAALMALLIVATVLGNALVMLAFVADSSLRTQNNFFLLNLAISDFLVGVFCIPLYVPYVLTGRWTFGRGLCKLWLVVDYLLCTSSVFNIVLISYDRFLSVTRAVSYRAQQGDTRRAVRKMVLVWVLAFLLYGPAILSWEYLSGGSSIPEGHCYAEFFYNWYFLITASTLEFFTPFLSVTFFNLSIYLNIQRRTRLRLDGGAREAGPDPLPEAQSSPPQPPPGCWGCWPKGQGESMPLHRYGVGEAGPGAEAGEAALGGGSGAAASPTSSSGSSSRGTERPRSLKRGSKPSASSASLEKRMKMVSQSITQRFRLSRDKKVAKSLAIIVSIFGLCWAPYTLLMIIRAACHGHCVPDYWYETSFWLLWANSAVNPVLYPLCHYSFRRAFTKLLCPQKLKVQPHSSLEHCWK

Compound	Ki [nM]
Nc1cc(CN2CCC(C(=O)N3CCC(n4c(-c5cc(Cl)cc(Cl)c5)nc5ccc(Cl)cc54)CC3)CC2)ccn1 [Example 54]	30
Cc1cc(-c2nc3cc(F)ccc3n2C2CCN(C(=O)C3CCN(Cc4ccnc(N)c4)CC3)CC2)no1 [Example 94]	1
Nc1cc(CN2CCC(C(=O)N3CCC(n4c(N5CCOCC5)nc5cc(F)ccc54)CC3)CC2)ccn1 [Example 120]	0.3
Nc1ncc(CN2CCC(C(=O)N3CCC(n4c(-c5ccccn5)nc5cc(F)ccc54)CC3)CC2)cn1 [Example 211]	7

More lines, now with the values ahead:

Ki [nM]	Compound
13	Nc1cc(CN2CCC(C(=O)N3CCC(c4nc5ccc(Cl)cc5[nH]4)CC3)CC2)ccn1 [Example 3]
1	Nc1cc(CN2CCC(C(=O)N3CCC(n4c(-c5ccccn5)nc5cc(F)c(F)cc54)CC3)CC2)ccn1 [Example 71]
0.5	Nc1cc(CN2CCC(C(=O)N3CCC(n4c(C5CC5)nc5cccnc54)CC3)CC2)ccn1 [Example 170]
0.4	Nc1cc(CN2CCC(C(=O)N3CCC(n4c(-c5ccc(F)cc5)nc5cccnc54)CC3)CC2)ccn1 [Example 173]
10	Nc1cc(CN2CCC(C(=O)N3CCC(n4c(-c5cc(-c6ccc(F)cc6)on5)nc5cccnc54)CC3)CC2)ccn1 [Example 195]
13	Nc1ncc(CN2CCC(F)(C(=O)N3CCC(n4c(-c5ccc(F)cc5F)nc5cc(F)ccc54)CC3)CC2)cn1 [Example 254]

Biological target: T2, human histamine H3 receptor (Homo sapiens, UniProt Q9Y5N1)
T2 construct: expressed in transfected cells
Experiment: rHu H3 Binding Assay (HEK-293 membranes)
Details: Receptor Source rHu, 1.2 nM [3H]Nα-methylhistamine
Procedure: General Procedure for rHu H3Binding Assay
[^3H]N^∝-methylhistamine (82 Ci/mmole) was obtained from Dupont NEN. Thioperamide was obtained from the Chemical Research Department, Schering-Plough Research Institute.
HEK-293 human embryonic kidney cells stably expressing the human histamine H3 receptor were cultured in Dulbecco's modified Eagle's medium/10% fetal calf serum/penicillin (100 U/ml)/streptomycin (100 μg/ml)/Geneticin (0.5 mg/ml) at 37° C. in a humidified 5% CO2 atmosphere. Cells were harvested between passages five and twenty at 37° C. in 5 mM EDTA/Hank's balanced salt solution and processed for membrane preparation. After low-speed centrifugation, ten min at 1000×g, they were put into ten volumes of ice-cold buffer and disrupted with a Polytron (PTA 35/2 tip, 30 sec at setting 6). After subsequent low-speed centrifugation, supernatant was centrifuged ten min at 50,000×g. The high-speed pellet was resuspended in the original volume of buffer, a sample was taken for protein assay (bicinchoninic acid, Pierce) and the suspension was centrifuged again at 50,000×g. Membranes were resuspended at 1 mg of protein/ml of buffer and frozen at −80° C. until use.
Membrane (15 μg of protein) was incubated with 1.2 nM [^3H]N^∝-methyl-histamine, without or with inhibitor compounds, in a total volume of 200 μl of buffer. Nonspecific binding was determined in the presence of 10^−5 M thioperamide. Assay mixtures were incubated for 30 min at 30° C. in polypropylene, 96-well, deep-well plates, then filtered through 0.3% polyethylenimine-soaked GF/B filters. These were washed three times with 1.2 ml of 4° C. buffer, dried in a microwave oven, impregnated with Meltilex wax scintillant and counted at 40% efficiency in a Betaplate scintillation counter (Wallac).
IC50 values were interpolated from the data or were determined from curves fit to the data with Prism nonlinear least squares curve-fitting program (GraphPad Software, San Diego, Calif.). Ki values were determined from IC50 values according to the Cheng and Prusoff equation.

T2 sequence (Q9Y5N1 whole entry): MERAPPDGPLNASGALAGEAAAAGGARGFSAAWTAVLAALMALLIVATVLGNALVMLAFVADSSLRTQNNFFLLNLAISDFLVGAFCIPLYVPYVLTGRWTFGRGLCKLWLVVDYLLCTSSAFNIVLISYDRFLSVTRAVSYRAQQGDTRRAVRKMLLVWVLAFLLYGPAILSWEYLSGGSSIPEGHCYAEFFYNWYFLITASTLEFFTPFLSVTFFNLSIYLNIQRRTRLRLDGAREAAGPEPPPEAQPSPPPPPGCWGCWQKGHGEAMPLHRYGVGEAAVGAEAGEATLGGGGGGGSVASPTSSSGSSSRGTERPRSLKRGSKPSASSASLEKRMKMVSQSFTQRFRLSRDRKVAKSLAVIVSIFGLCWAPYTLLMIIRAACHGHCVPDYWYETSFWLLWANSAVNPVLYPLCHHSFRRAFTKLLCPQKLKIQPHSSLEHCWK

Compound	Ki [nM]
Nc1cc(CN2CCC(C(=O)N3CCC(n4c(-c5ccccn5)nc5cc(F)ccc54)CC3)CC2)ccn1 [Example 1]	1
Nc1ncc(CN2CCC(F)(C(=O)N3CCC(n4c(-c5ccccn5)nc5cccnc54)CC3)CC2)cn1 [Example 5]	9
CSc1nc2cc(F)ccc2n1C1CCN(C(=O)C2CCN(Cc3ccnc(N)c3)CC2)CC1 [Example 109]	1
Nc1cc(CN2CCC(F)(C(=O)N3CCC(n4c(N5CCOCC5)nc5cc(F)ccc54)CC3)CC2)ccn1 [Example 165]	2
CSc1nc2cc(F)ccc2n1C1CCN(C(=O)C2CCN(Cc3cnc(N)nc3)CC2)CC1 [Example 269]	4
CC(C)Oc1nc2cc(F)ccc2n1C1CCN(C(=O)C2(F)CCN(Cc3cnc(N)nc3)CC2)CC1 [Example 326]	2
Nc1ncc(CN2CCC(F)(C(=O)N3CCC(n4c(-c5cccc[n+]5[O-])nc5cccnc54)CC3)CC2)cn1 [Example 388]	30
O=C(C1CCN(Cc2cc[nH]n2)CC1)N1CCC(n2c(-c3ccccn3)nc3cc(F)ccc32)CC1 [Example 442]	1
CCc1nc2cc(F)ccc2n1C1CCN(C(=O)C2(F)CCN(Cc3cnc(N)nc3)CC2)CC1 [Example 468]	10
CSc1nc2cc(F)ccc2n1C1CCN(C(=O)C2CCN(Cc3ccnnc3)CC2)CC1 [Example 493]	1
CCCOc1nc2cccnc2n1C1CCN(C(=O)C2CCN(Cc3ccnnc3)CC2)CC1 [Example 552]	4
O=C(C1CCN(Cc2ccnnc2)CC1)N1CCC(n2c(-c3ccccn3)nc3cc(Cl)ccc32)CC1 [Example 557]	19
CCSc1nc2cc(C(F)(F)F)ccc2n1C1CCN(C(=O)C2CCN(Cc3cnc(N)nc3)CC2)CC1 [Example 577]	44
CSc1nc2cc(S(C)(=O)=O)ccc2n1C1CCN(C(=O)C2CCN(Cc3ccnnc3)CC2)CC1 [Example 595]	41
Nc1cc(CCCN2CCC(C(=O)N3CCC(n4c(-c5ccccn5)nc5cccnc54)CC3)CC2)ccn1 [Example 608]	1
CCCc1nc2cc(F)ccc2n1C1CCN(C(=O)C2CCN(Cc3cnc(N)nc3)CC2)CC1 [Example 618]	9
CCCc1nc2cc(F)ccc2n1C1CCN(C(=O)C2CCN(Cc3ccnnc3)CC2)CC1 [Example 619]	2
CSc1nc2cc(Cl)ccc2n1C1CCN(C(=O)C2CCN(Cc3ccnnc3)CC2)CC1 [Example 628]	4

Second part, the compound after the results:

Ki [nM]	Compound
4	CCOc1nc2cc(F)ccc2n1C1CCN(C(=O)C2(F)CCN(Cc3cnc(N)nc3)CC2)CC1 [Example 270]
4	Nc1ncc(CN2CCC(F)(C(=O)N3CCC(n4c(-c5ccoc5)nc5cccnc54)CC3)CC2)cn1 [Example 281]
3	CSc1nc2cc(F)ccc2n1C1CCN(C(=O)C2(F)CCN(Cc3cnc(N)nc3)CC2)CC1 [Example 290]
4	COc1nc2cc(F)ccc2n1C1CCN(C(=O)C2(F)CCN(Cc3cnc(N)nc3)CC2)CC1 [Example 297]
5	CSc1nc2cccnc2n1C1CCN(C(=O)C2(F)CCN(Cc3cnc(N)nc3)CC2)CC1 [Example 315]
5	CCOc1nc2cccnc2n1C1CCN(C(=O)C2(F)CCN(Cc3cnc(N)nc3)CC2)CC1 [Example 316]
5	O=C(N1CCC(n2c(-c3ccccn3)nc3cc(F)ccc32)CC1)C1(F)CCN(Cc2ccnnc2)CC1 [Example 423]
1	Nc1ncc(CN2CCC(F)(C(=O)N3CCC(n4c(Oc5ccccc5)nc5cc(F)ccc54)CC3)CC2)cn1 [Example 449]
4	CCCOc1nc2cc(F)ccc2n1C1CCN(C(=O)C2(F)CCN(Cc3cnc(N)nc3)CC2)CC1 [Example 459]
4	CCCOc1nc2cc(F)ccc2n1C1CCN(C(=O)C2CCN(Cc3cnc(N)nc3)CC2)CC1 [Example 460]
7	CSc1nc2cc(Cl)ccc2n1C1CCN(C(=O)C2CCN(Cc3cnc(N)nc3)CC2)CC1 [Example 502]
2	CCOc1nc2cc(F)ccc2n1C1CCN(C(=O)C2CCN(Cc3ccnnc3)CC2)CC1 [Example 512]
14	Nc1ncc(CN2CCC(C(=O)N3CCC(n4c(SCc5ccccc5)nc5cc(F)ccc54)CC3)CC2)cn1 [Example 547]
2	COc1nc2cc(F)ccc2n1C1CCN(C(=O)C2CCN(Cc3ccnnc3)CC2)CC1 [Example 571]
2	CSc1nc2cc(F)c(F)cc2n1C1CCN(C(=O)C2(F)CCN(Cc3ccnc(N)c3)CC2)CC1 [Example 574]
6	CCCSc1nc2cccnc2n1C1CCN(C(=O)C2CCN(Cc3ccnnc3)CC2)CC1 [Example 588]
9	CCOc1nc2cc(Cl)ccc2n1C1CCN(C(=O)C2CCN(Cc3ccnnc3)CC2)CC1 [Example 592]
17	CCc1nc2cc(F)ccc2n1C1CCN(C(=O)C2CCN(Cc3cnc(N)nc3)CC2)CC1 [Example 598]
10	CSc1nc2cc(Cl)ccc2n1C1CCN(C(=O)C2(F)CCN(Cc3cnc(N)nc3)CC2)CC1 [Example 625]
